This is an account of results in publication PMC9476787 (Chinese Herbal Medicines, 2020).

Test [1] addresses yeast α-glucosidase. In words: α-glucosidase inhibition assay. The class given is biochemical. As to conditions: read-out: IC50 α-Glucosidase; Table 2; mean ± SD, n = 3.
The target in test [2] is T1, PTP1B (human, recombinant) (Homo sapiens, UniProt P18031).
T1 sequence (P18031 1-435): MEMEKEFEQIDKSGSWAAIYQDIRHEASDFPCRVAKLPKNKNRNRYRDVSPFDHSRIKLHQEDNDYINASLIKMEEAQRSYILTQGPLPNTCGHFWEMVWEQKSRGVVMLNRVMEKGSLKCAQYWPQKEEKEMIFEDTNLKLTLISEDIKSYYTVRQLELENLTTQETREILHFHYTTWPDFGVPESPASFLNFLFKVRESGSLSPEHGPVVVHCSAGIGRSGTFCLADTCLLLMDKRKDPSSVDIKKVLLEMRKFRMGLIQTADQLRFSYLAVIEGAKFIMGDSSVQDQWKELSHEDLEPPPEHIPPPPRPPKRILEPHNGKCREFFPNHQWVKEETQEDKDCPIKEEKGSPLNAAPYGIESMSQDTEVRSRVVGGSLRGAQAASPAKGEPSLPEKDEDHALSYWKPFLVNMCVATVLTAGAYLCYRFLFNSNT
Description: PTP1B inhibition assay. The class given is biochemical.

For the molecule `CC[C@H](CC[C@@H](C)[C@H]1CC[C@H]2[C@@H]3CC=C4C[C@@H](O)CC[C@]4(C)[C@H]3CC[C@]12C)C(C)C` [Compound 6, β-Sitosterol], the IC50 is 69.41 ± 0.03 µM in test [1] and greater than 100 µM in test [2]. Consider `CC1(C)CC[C@]2(C(=O)O)CC[C@]3(C)C(=CC[C@@H]4[C@@]5(C)CC[C@H](O)C(C)(C)[C@@H]5CC[C@]43C)[C@@H]2C1` [Compound 7, Oleanolic acid], for which, in test [1], the half-maximal inhibitory concentration (IC50) is 41.04 ± 0.34 µM.

What is called IC50 is the concentration needed to halve the response being measured.
